Laboratory results taken from ChEMBL document CHEMBL2177099, “Discovery of 1-[4-(N-benzylamino)phenyl]-3-phenylurea derivatives as non-peptidic selective SUMO-sentrin specific protease (SENP)1 inhibitors” (Bioorg Med Chem Lett, 2012).
Calls of active or inactive are those of the source. No cut-off for these calls is given here.

Assays:
Bos taurus [1] = organism: Bos taurus; assay: Inhibition of bovine pancreatic chymotrypsin using FITC-Casein substrate at 10 to 100 uM by fluorescence assay
Bos taurus [2] = organism: Bos taurus; assay: Inhibition of bovine pancreatic trypsin using FITC-Casein substrate at 10 to 100 uM by fluorescence assay
[3] = molecular target: T1, Sentrin-specific protease 2 (Homo sapiens) (UniProt Q9HC62); assay: Inhibition of recombinant human SENP2 catalytic domain assessed as release of fluorescent AMC from SUMO-1-AMC preincubated at 10 to 100 uM for 10 mins before substrate addition by fluorescence assay
T1 sequence (whole entry): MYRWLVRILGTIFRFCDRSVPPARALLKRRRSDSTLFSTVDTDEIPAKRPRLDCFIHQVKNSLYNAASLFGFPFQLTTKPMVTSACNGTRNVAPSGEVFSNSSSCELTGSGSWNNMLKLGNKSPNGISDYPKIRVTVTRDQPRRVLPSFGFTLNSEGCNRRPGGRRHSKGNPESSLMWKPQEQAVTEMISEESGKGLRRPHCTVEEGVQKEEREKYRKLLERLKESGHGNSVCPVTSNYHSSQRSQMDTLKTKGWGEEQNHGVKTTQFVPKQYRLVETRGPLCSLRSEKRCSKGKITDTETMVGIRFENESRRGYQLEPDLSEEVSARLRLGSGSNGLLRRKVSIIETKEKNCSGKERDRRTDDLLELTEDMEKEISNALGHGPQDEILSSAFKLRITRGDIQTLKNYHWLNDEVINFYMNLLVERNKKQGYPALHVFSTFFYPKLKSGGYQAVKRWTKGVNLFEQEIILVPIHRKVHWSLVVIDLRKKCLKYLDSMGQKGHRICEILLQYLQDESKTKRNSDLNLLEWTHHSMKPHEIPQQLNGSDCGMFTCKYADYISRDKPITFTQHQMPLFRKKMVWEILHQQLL

HeLa [4] = assay: Inhibition of hypoxia-induced HIF1alpha accumulation in human HeLa cells after 6 hrs by Western blot analysis; format: functional, cell-based
[5] = molecular target: T2, Thermolysin (Bacillus thermoproteolyticus) (UniProt P00800); assay: Inhibition of Bacillus thermoproteolyticus rokko thermolysin using FITC-Casein substrate at 10 to 100 uM by fluorescence assay
T2 sequence (whole entry): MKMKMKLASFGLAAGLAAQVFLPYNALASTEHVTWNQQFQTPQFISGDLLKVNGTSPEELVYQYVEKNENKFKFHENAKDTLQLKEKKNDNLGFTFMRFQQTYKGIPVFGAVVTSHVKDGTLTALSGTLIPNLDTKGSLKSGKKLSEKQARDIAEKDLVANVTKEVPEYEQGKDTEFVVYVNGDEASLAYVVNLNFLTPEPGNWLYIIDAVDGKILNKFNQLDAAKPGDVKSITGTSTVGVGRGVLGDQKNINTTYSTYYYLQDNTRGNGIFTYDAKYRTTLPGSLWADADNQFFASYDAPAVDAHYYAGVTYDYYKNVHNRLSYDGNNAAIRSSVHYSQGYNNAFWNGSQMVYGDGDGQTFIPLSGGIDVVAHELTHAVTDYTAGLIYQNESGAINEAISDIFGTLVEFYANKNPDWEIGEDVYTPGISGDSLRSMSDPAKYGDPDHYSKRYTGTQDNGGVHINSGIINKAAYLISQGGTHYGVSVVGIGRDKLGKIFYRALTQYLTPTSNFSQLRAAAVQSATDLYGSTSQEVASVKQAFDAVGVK

HeLa [6] = details: Homo sapiens, 3 uM
Description: Inhibition of hypoxia-induced HIF1alpha accumulation in human HeLa cells at 3 uM after 6 hrs by Western blot analysis

Row | inhibition (Bos taurus [1]) | inhibition (Bos taurus [2]) | inhibition [3] | inhibition [5] | SMILES | inhibition (HeLa [4]) | inhibition (HeLa [6])
1 | inactive | inactive | inactive | inactive | CCOC(=O)c1cccc(CNc2ccc(N(C)C(=O)Nc3ccccc3)cc2)c1 | Dose-dependent effect | –
2 | – | – | – | – | COC(=O)c1cccc(CNc2ccc(N(C)C(=O)Nc3ccccc3)cc2)c1 | Dose-dependent effect | Active
